Our source for the AC50 values is patent US20230365592A1 (Agios Pharmaceuticals, Inc., priority 2022, published 2023).

The assay deals with T1, human PAH with the R408W mutation (Homo sapiens, UniProt P00439, R408W).
T1 construct: expressed in transfected cells
T1 sequence (P00439 1-452 R408W): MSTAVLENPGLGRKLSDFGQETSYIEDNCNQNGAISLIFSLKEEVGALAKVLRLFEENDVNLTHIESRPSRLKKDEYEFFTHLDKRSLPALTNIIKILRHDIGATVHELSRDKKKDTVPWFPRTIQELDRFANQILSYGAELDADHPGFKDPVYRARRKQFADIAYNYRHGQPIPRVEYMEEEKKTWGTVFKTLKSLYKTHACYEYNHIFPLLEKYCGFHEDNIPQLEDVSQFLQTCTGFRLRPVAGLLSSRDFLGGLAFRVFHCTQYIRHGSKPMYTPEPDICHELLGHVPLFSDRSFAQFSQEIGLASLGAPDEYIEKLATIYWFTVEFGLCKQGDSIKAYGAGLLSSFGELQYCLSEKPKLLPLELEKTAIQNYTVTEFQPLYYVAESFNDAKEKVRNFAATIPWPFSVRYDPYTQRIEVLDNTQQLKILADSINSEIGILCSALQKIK
The assay is described as follows: Cell Based Phenylalanine Flux Assay.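 Also: after compound treatment, cells received sepiapterin plus isotope-labelled Phenylalanine for 4 hours, then labelled Tyrosine in the medium was quantified, 10-point 2-fold dilution series run in duplicate.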 To be noted: A375 cells expressing human R408W PAH; 24 hrs compound incubation; 13C-Tyrosine by LC-MS; average where tested multiple times; read-out: AC50.

Usually AC50 stands for the midpoint of the concentration-response curve, whichever way the signal moves.

With `Cn1nc(Cl)nc1C(=O)N1CCc2[nH]cnc2[C@@H]1c1cc2ccccn2n1` [Example 695, (R)-(3-chloro-1-methyl-1H-1,2,4-triazol-5-yl)(4-(pyrazolo[1,5-a]pyridin-2-yl)-6,7-dihydro-1H-imidazo[4,5-c]pyridin-5(4H)-yl)methanone], the AC50 is more than 5000 nM. The figure for `Cn1cc(-c2nnc(C(=O)N3CCc4[nH]cnc4[C@H]3c3cc4ccc(Cl)cn4n3)o2)cn1` [Example 696, (S)-(4-(6-chloropyrazolo[1,5-a]pyridin-2-yl)-6,7-dihydro-1H-imidazo[4,5-c]pyridin-5(4H)-yl)(5-(1-methyl-1H-pyrazol-4-yl)-1,3,4-oxadiazol-2-yl)methanone] is less than 500 nM; for `Cn1cc(-c2nnc(C(=O)N3CCc4[nH]cnc4[C@@H]3c3cc4ccc(Cl)cn4n3)o2)cn1` [Example 697, (R)-(4-(6-chloropyrazolo[1,5-a]pyridin-2-yl)-6,7-dihydro-1H-imidazo[4,5-c]pyridin-5(4H)-yl)(5-(1-methyl-1H-pyrazol-4-yl)-1,3,4-oxadiazol-2-yl)methanone] it is more than 5000 nM. The figure for `CC(C)(C#N)c1nc(C(F)F)c(C(=O)N2CCc3[nH]cnc3[C@H]2c2cc3ccccn3n2)o1` [Example 699, (S)-2-(4-(difluoromethyl)-5-(4-(pyrazolo[1,5-a]pyridin-2-yl)-4,5,6,7-tetrahydro-1H-imidazo[4,5-c]pyridine-5-carbonyl)oxazol-2-yl)-2-methylpropanenitrile] is less than 500 nM; for `CC(C)(O)c1nc(C(F)F)c(C(=O)N2CCc3[nH]cnc3[C@H]2c2cc3c(Cl)cccn3n2)o1` [Example 700, (S)-(4-(4-chloropyrazolo[1,5-a]pyridin-2-yl)-6,7-dihydro-1H-imidazo[4,5-c]pyridin-5(4H)-yl)(4-(difluoromethyl)-2-(2-hydroxypropan-2-yl)oxazol-5-yl)methanone] it is less than 500 nM; for `CC(C)(O)c1nc(C(F)F)c(C(=O)N2CCc3[nH]cnc3[C@@H]2c2cc3c(Cl)cccn3n2)o1` [Example 701, (R)-(4-(4-chloropyrazolo[1,5-a]pyridin-2-yl)-6,7-dihydro-1H-imidazo[4,5-c]pyridin-5(4H)-yl)(4-(difluoromethyl)-2-(2-hydroxypropan-2-yl)oxazol-5-yl)methanone] it is 1000 to 5000 nM. As for `C[C@@H](O)c1nc(C(F)F)c(C(=O)N2CCc3[nH]cnc3[C@H]2c2cc3c(Cl)cccn3n2)o1` [Example 702, ((S)-4-(4-chloropyrazolo[1,5-a]pyridin-2-yl)-6,7-dihydro-1H-imidazo[4,5-c]pyridin-5(4H)-yl)(4-(difluoromethyl)-2-((R)-1-hydroxyethyl)oxazol-5-yl)methanone], the AC50 is less than 500 nM. Consider `C[C@@H](O)c1nc(C(F)F)c(C(=O)N2CCc3[nH]cnc3[C@@H]2c2cc3c(Cl)cccn3n2)o1` [Example 703, ((R)-4-(4-chloropyrazolo[1,5-a]pyridin-2-yl)-6,7-dihydro-1H-imidazo[4.5-c]pyridin-5(4H)-yl)(4-(difluoromethyl)-2-((R)-1-hydroxyethyl)oxazol-5-yl)methanone], for which the AC50 is 1000 to 5000 nM. The figure for `O=C(c1oc(C2(O)CC2)nc1C(F)F)N1CCc2[nH]cnc2[C@H]1c1cc2c(Cl)cccn2n1` [Example 704, (S)-(4-(4-chloropyrazolo[1,5-a]pyridin-2-yl)-6,7-dihydro-1H-imidazo[4,5-c]pyridin-5(4H)-yl)(4-(difluoromethyl)-2-(1-hydroxycyclopropyl)oxazol-5-yl)methanone] is less than 500 nM. The figure for `Cc1nc([C@@H](C)O)oc1C(=O)N1CCc2[nH]cnc2[C@H]1c1cc2c(Cl)cccn2n1` [Example 706, ((S)-4-(4-chloropyrazolo[1,5-a]pyridin-2-yl)-6,7-dihydro-1H-imidazo[4,5-c]pyridin-5(4H)-yl)(2-((R)-1-hydroxyethyl)-4-methyloxazol-5-yl)methanone] is less than 500 nM.
